Test results from patent publication US20240287022A1 (Merck Sharp & Dohme LLC, priority 2021, published 2024).

molecular target: recombinant IL4I1 (Homo sapiens (Human), UniProt Q96RQ9); assay: IL4I1 Enzymatic Assay (Amplex Red/HRP coupled H2O2 detection); type: biochemical; conditions: 1 nM IL4I1, 1 mM each Phe/Tyr/Trp, four-hour pre-incubation, 120 minutes reaction, top compound concentration of 10000 nM
Protocol: Interleukin 4 inducible protein 1 (IL4I1) is an L-amino oxidase that catalyzes the oxidation of aromatic residues (Phe, Trp and Tyr): L-amino acid+H2O+O2→2-oxo acid+NH3+H2O2. Equal molar of H2O2 and the corresponding alpha-ketoacid are produced when IL4I1 and substrate are added. In this assay, the hydrogen peroxide generated by IL4I1 are then detected through a coupled reaction with Amplex Red (10-acetyl-3,7-dihydroxyphenoxazine) and […] (HRP) to produce Resorufin product that could be detected in the form of fluorescence signals. The assessment of the inhibitory effect of small molecules (EC50) on IL4I1 is measured by the effectiveness of the compounds to inhibit the production of H2O2.
Using this assay, the potency (EC50) of each compound was determined from a ten-point (1:3 serial dilution; top compound concentration of 10000 nM) titration curve using the following outlined procedure. To each well of a black flat-bottom Greiner (Cat #781076) 384 well-plate, 25 nL of compound (0.1% DMSO in final assay volume of 25 μL) was dispensed, followed by the addition of 12.5 μL of 1× assay buffer (50 mM Hepes 7.0 and 0.005% Tween20 (Sigma, Cat #P8341; low peroxide grade)) containing 2 nM of recombinant IL4I1 (R&D Systems, Cat #5684-AO-020). Plates were placed in an ambient temperature humidified chamber for a four-hour pre-incubation with compound. Subsequently, each reaction was initiated by the addition of 12.5 μL 1× assay buffer containing 2 mM of each aromatic amino acids (Phe/Tyr/Trp), 0.1 mM Amplex Red and 2 U/mL of HRP. The final reaction in each well of 25 μL consists of 1 nM of IL4I1, 1 mM of each residues (Phe, Tyr and Trp), 0.05 mM Amplex Red and 1 U/mL of HRP. It should be noted that the concentrations of Amplex Red and HRP used here are in excess such that the conversion of H2O2 to Resorufin product occurs instantaneously and non-rate limiting. Reactions were allowed to proceed for 120 minutes followed by fluorescence readout on a Spectramax with the following set parameters: 544 nm excitation/590 nm emission, 570 nm cutoff (EnVision is an alternative reader). Dose-response curves were generated by plotting percent effect (% product conversion; Y-axis) vs. Log10 compound concentrations (X-axis). EC50 values were calculated using a non-linear regression, four-parameters sigmoidal dose-response model.

Sequence of recombinant IL4I1 (Q96RQ9 22-567): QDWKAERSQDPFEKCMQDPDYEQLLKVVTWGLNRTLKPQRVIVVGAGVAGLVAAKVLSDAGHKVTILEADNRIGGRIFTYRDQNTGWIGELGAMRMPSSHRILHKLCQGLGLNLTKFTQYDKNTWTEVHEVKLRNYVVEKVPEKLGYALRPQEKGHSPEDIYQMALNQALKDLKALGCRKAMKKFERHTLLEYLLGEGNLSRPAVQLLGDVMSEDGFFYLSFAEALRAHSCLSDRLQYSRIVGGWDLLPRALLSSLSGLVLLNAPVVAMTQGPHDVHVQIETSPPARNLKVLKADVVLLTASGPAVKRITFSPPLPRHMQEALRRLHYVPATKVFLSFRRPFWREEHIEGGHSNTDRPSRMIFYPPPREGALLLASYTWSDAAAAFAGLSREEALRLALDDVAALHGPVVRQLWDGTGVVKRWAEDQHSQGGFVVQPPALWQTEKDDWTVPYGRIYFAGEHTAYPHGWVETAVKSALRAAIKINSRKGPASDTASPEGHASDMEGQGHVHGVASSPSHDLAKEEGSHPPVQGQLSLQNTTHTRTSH

Structure (SMILES)	EC50
CC1(C)CN(c2ccc(Cc3cc4ccccc4[nH]c3=O)cn2)C(=O)O1 [Example 52, 5,5-dimethyl-3-(5-((2-oxo-1,2-dihydroquinolin-3-yl)methyl)pyridin-2-yl)oxazolidin-2-one]	10.7 nM
O=C1OCCN1c1ncc(Cc2cc3ccccc3[nH]c2=O)cc1Cl [Example 53]	5.6 nM
CC1(Nc2ccc(Cc3cc4ccccc4[nH]c3=O)cc2)CNC1 [Example 58, 3-(4-((3-methylazetidin-3-yl)amino)benzyl)quinolin-2(1H)-one]	9.8 nM
O=c1[nH]c2ccccc2cc1Cc1ccc(N2CCNCC2)cc1 [Example 59, 3-(4-(piperazin-1-yl)benzyl)quinolin-2(1H)-one]	23.6 nM
O=c1[nH]c2ccccc2cc1Cc1ccc(C2CNC2)cc1 [Example 63, 3-(4-(azetidin-3-yl)benzyl)quinolin-2(1H)-one]	9.7 nM
CC(=O)NCc1ccc(Cc2cc3ccccc3[nH]c2=O)cc1Cl [Example 66, N-(2-chloro-4-((2-oxo-1,2-dihydroquinolin-3-yl)methyl)benzyl)acetamide]	2 nM
CC(=O)NCc1ncc(Cc2cc3ccccc3[nH]c2=O)cc1Cl [Example 68, N-((3-chloro-5-((2-oxo-1,2-dihydroquinolin-3-yl)methyl)pyridin-2-yl)methyl)acetamide]	12.3 nM
O=c1[nH]c2ccccc2cc1Cc1cc(F)c2c(c1)CNC2 [Example 69, 3-((7-fluoroisoindolin-5-yl)methyl)quinolin-2(1H)-one]	10.6 nM
NS(=O)(=O)c1c(Cl)cc(Cc2cc3ccccc3[nH]c2=O)cc1Cl [Example 71, 2,6-dichloro-4-((2-oxo-1,2-dihydroquinolin-3-yl)methyl)benzenesulfonamide]	3.7 nM
NS(=O)(=O)Cc1ccc(Cc2cc3ccccc3[nH]c2=O)cc1 [Example 72, (4-((2-oxo-1,2-dihydroquinolin-3-yl)methyl)phenyl)methanesulfonamide]	2.2 nM
CS(=O)(=O)NCc1ccc(Cc2cc3ccccc3[nH]c2=O)cc1 [Example 73, N-(4-((2-oxo-1,2-dihydroquinolin-3-yl)methyl)benzyl)methanesulfonamide]	6.4 nM
COc1cc(CNS(C)(=O)=O)ccc1Cc1cc2ccccc2[nH]c1=O [Example 74, N-(3-methoxy-4-((2-oxo-1,2-dihydroquinolin-3-yl)methyl)benzyl)methanesulfonamide]	6.9 nM
O=C1CCc2ccc(Cc3cc4ccccc4[nH]c3=O)cc21 [Example 75, 3-((3-oxo-2,3-dihydro-1H-inden-5-yl)methyl)quinolin-2(1H)-one]	0.9 nM
O=C1NCCc2ccc(Cc3cc4ccccc4[nH]c3=O)cc21 [Example 77]	4.7 nM
CC1(c2ccc(Cc3cc4ccccc4[nH]c3=O)cc2)CNC1 [Example 79, 3-(4-(3-methylazetidin-3-yl)benzyl)quinolin-2(1H)-one]	11.5 nM
O=c1[nH]c2ccccc2cc1Cc1ccc2c(c1)S(=O)(=O)CC2 [Example 81, 3-((1,1-dioxido-2,3-dihydrobenzo[b]thiophen-6-yl)methyl)quinolin-2(1H)-one]	2.4 nM
CC(=O)NCc1ncc(Cc2cc3ccccc3[nH]c2=O)cc1F [Example 82]	10 nM
CC(=O)N1Cc2ccc(Cc3cc4ccccc4[nH]c3=O)cc2C1 [Example 83, 3-((2-acetylisoindolin-5-yl)methyl)quinolin-2(1H)-one]	3.8 nM
CC(=O)NCc1ccc(Cc2cc3ccccc3[nH]c2=O)cn1 [Example 84, N-((5-((2-oxo-1,2-dihydroquinolin-3-yl)methyl)pyridin-2-yl)methyl)acetamide]	13.8 nM
O=c1[nH]c2ccccc2cc1Cc1ccc(OC2CCOCC2)nc1 [Example 85, 3-((6-((tetrahydro-2H-pyran-4-yl)oxy)pyridin-3-yl)methyl)quinolin-2(1H)-one]	8.7 nM
O=C1NCc2cc(F)c(Cc3cc4ccccc4[nH]c3=O)cc21 [Example 87, 3-((6-fluoro-3-ixoisoindolin-5-yl)methyl)quinolin-2(1H)-one]	4.2 nM
O=C1COc2ncc(Cc3cc4ccccc4[nH]c3=O)cc2N1 [Example 89, 7-((2-oxo-1,2-dihydroquinolin-3-yl)methyl)-1H-pyrido[2,3-b][1,4]oxazin-2(3H)-one]	4.5 nM
CS(=O)(=O)NCc1ncc(Cc2cc3ccccc3[nH]c2=O)cc1Cl [Example 91, N-((3-chloro-5-((2-oxo-1,2-dihydroquinolin-3-yl)methyl)pyridin-2-yl)methyl)methanesulfonamide]	10.9 nM
CC(C)(O)CN1Cc2ccc(Cc3cc4ccccc4[nH]c3=O)cc2C1=O [Example 94, 3-((2-(2-hydroxy-2-methylpropyl)-3-oxoisoindolin-5-yl)methyl)quinolin-2(1H)-one]	29.6 nM
N#Cc1c[nH]c2ccc(Cc3cc4ccccc4[nH]c3=O)nc12 [Example 96, 5-((2-oxo-1,2-dihydroquinolin-3-yl)methyl)-1H-pyrrolo[3,2-b]pyridine-3-carbonitrile]	2 nM
CC(C)(C#N)c1ccc(Cc2cc3ccccc3[nH]c2=O)cc1 [Example 97, 2-methyl-2-(4-((2-oxo-1,2-dihydroquinolin-3-yl)methyl)phenyl)propanenitrile]	1.4 nM
N#CC1(c2ccc(Cc3cc4ccccc4[nH]c3=O)cc2)CC1 [Example 98, 1-(4-((2-oxo-1,2-dihydroquinolin-3-yl)methyl)phenyl)cyclopropane-1-carbonitrile]	1 nM
N#CC1(c2ccc(Cc3cc4ccccc4[nH]c3=O)cn2)COC1 [Example 99, 3-(5-((2-oxo-1,2-dihydroquinolin-3-yl)methyl)pyridin-2-yl)oxetane-3-carbonitrile]	5.9 nM
N#CC1(c2ccc(Cc3cc4ccccc4[nH]c3=O)cc2)CCOCC1 [Example 107, 4-(4-((2-oxo-1,2-dihydroquinolin-3-yl)methyl)phenyl)tetrahydro-2H-pyran-4-carbonitrile]	3.2 nM

Now from value to compound:

EC50	Structure (SMILES)
2.7 nM	O=C1OCCN1c1ccc(Cc2cc3cnccc3[nH]c2=O)cc1 [Example 61, 3-(4-((2-oxo-1,2-dihydro-1,6-naphthyridin-3-yl)methyl)phenyl)oxazolidin-2-one]
8.9 nM	NS(=O)(=O)c1ccc(Cc2cc3ccccc3[nH]c2=O)cc1Cl [Example 70, 2-chloro-4-((2-oxo-1,2-dihydroquinolin-3-yl)methyl)benzenesulfonamide]
10.7 nM	O=C1NCCc2cc(Cc3cc4ccccc4[nH]c3=O)ccc21 [Example 78, 3-((1-oxo-1,2,3,4-tetrahydroisoquinolin-6-yl)methyl)quinolin-2(1H)-one]
3.3 nM	CC(C)(O)c1ccc(Cc2cc3ccccc3[nH]c2=O)cc1Cl [Example 80, 3-(3-chloro-4-(2-hydroxypropan-2-yl)benzyl)quinolin-2(1H)-one]
0.9 nM	CC(=O)c1cccc(Cc2cc3ccccc3[nH]c2=O)c1 [Example 86, 3-(3-acetylbenzyl)quinolin-2(1H)-one]
1.3 nM	O=c1[nH]c2ccccc2cc1Cc1ccc(OCC2CC2)nc1 [Example 88, 3-((6-(cyclopropylmethoxy)pyridin-3-yl)methyl)quinolin-2(1H)-one]
1.7 nM	N#Cc1cnn2ccc(Cc3cc4ccccc4[nH]c3=O)cc12 [Example 92, 5-((2-oxo-1,2-dihydroquinolin-3-yl)methyl)pyrazolo[1,5-a]pyridine-3-carbonitrile]
2.5 nM	N#Cc1n[nH]c2ccc(Cc3cc4cnccc4[nH]c3=O)cc12 [Example 95, 5-((2-oxo-1,2-dihydro-1,6-naphthyridin-3-yl)methyl)-1H-indazole-3-carbonitrile]
7.3 nM	CC(C)(C#N)c1ccc(Cc2cc3cnccc3[nH]c2=O)cc1 [Example 100, 2-methyl-2-(4-((2-oxo-1,2-dihydro-1,6-naphthyridin-3-yl)methyl)phenyl)propanenitrile]
466 nM	O=c1[nH]c2cnccc2cc1Cc1cccc(OC(F)(F)F)c1 [Example 103, 3-(3-(trifluoromethoxy)benzyl)-1,7-naphthyridin-2(1H)-one]
9180 nM	O=c1[nH]c2cnccc2cc1Cc1ccccc1 [Example 104, 3-benzyl-1,7-naphthyridin-2(1H)-one]
619 nM	O=c1[nH]c2cccnc2cc1Cc1cccc(OC(F)(F)F)c1 [Example 105, 3-(3-(trifluoromethoxy)benzyl)-1,5-naphthyridin-2(1H)-one]
958 nM	O=c1[nH]c2ncccc2cc1Cc1cccc(OC(F)(F)F)c1 [Example 106, 3-(3-(trifluoromethoxy)benzyl)-1,8-naphthyridin-2(1H)-one]
